The supplement of paper PMC13380429

Tests used:
Conditions in all cases: 72 h
[1] = system: Caco-2; experiment: drug sensitivity score (DSS) for viability; higher = more toxic; extreme values may be limits of the assay
[2] = system: HepG2; experiment: as above
[3] = system: Calu-3; experiment: as above
[4] = system: Vero E6; experiment: as above
[5] = system: U2OS; experiment: as above
[6] = system: Caco-2; experiment: relative viability EC50 (midpoint between 100% and the lowest measured viability); higher = less toxic
[7] = system: HepG2; experiment: as above
[8] = system: Calu-3; experiment: as above
[9] = system: Vero E6; experiment: as above
[10] = system: U2OS; experiment: as above
[11] = system: Caco-2; experiment: cell viability relative to DMSO; higher = less toxic
[12] = system: HepG2; experiment: as above
[13] = system: Calu-3; experiment: as above
[14] = system: Vero E6; experiment: as above
[15] = system: U2OS; experiment: as above

CCn1cc(C(=O)O)c(=O)c2ccc(C)nc21 [nalidixic-acid]
drug sensitivity score [1]: 0 | drug sensitivity score [2]: 0 | drug sensitivity score [3]: 0 | drug sensitivity score [4]: 0 | drug sensitivity score [5]: 0 | relative viability EC50 [6]: > 10 µM | relative viability EC50 [7]: > 10 µM | relative viability EC50 [8]: > 10 µM | relative viability EC50 [9]: > 10 µM | relative viability EC50 [10]: > 10 µM | cell viability ([11]; 1 nM): 96.3% | cell viability ([11]; 10 nM): 94.4% | cell viability ([11]; 100 nM): 93.2% | cell viability ([11]; 1000 nM): 99.9% | cell viability ([11]; 10000 nM): 96.8% | cell viability ([12]; 1 nM): 106% | cell viability ([12]; 10 nM): 108% | cell viability ([12]; 100 nM): 90% | cell viability ([12]; 1000 nM): 102% | cell viability ([12]; 10000 nM): 95.6% | cell viability ([13]; 1 nM): 96.8% | cell viability ([13]; 10 nM): 89% | cell viability ([13]; 100 nM): 100% | cell viability ([13]; 1000 nM): 93% | cell viability ([13]; 10000 nM): 102% | cell viability ([14]; 1 nM): 113% | cell viability ([14]; 10 nM): 107% | cell viability ([14]; 100 nM): 104% | cell viability ([14]; 1000 nM): 101% | cell viability ([14]; 10000 nM): 89.4% | cell viability ([15]; 1 nM): 100% | cell viability ([15]; 10 nM): 95.8% | cell viability ([15]; 100 nM): 100% | cell viability ([15]; 1000 nM): 98.3% | cell viability ([15]; 10000 nM): 104%

CC(C)NCC(O)c1ccc([N+](=O)[O-])cc1 (stereo not given) [nifenalol]
drug sensitivity score [1]: 0 | drug sensitivity score [2]: 0 | drug sensitivity score [3]: 0 | drug sensitivity score [4]: 0 | drug sensitivity score [5]: 0 | relative viability EC50 [6]: > 10 µM | relative viability EC50 [7]: > 10 µM | relative viability EC50 [8]: > 10 µM | relative viability EC50 [9]: > 10 µM | relative viability EC50 [10]: > 10 µM | cell viability ([11]; 1 nM): 87.2% | cell viability ([11]; 10 nM): 99.9% | cell viability ([11]; 100 nM): 92.7% | cell viability ([11]; 1000 nM): 85.1% | cell viability ([11]; 10000 nM): 94% | cell viability ([12]; 1 nM): 98.3% | cell viability ([12]; 10 nM): 101% | cell viability ([12]; 100 nM): 103% | cell viability ([12]; 1000 nM): 108% | cell viability ([12]; 10000 nM): 106% | cell viability ([13]; 1 nM): 101% | cell viability ([13]; 10 nM): 96.8% | cell viability ([13]; 100 nM): 103% | cell viability ([13]; 1000 nM): 98.4% | cell viability ([13]; 10000 nM): 108% | cell viability ([14]; 1 nM): 107% | cell viability ([14]; 10 nM): 106% | cell viability ([14]; 100 nM): 102% | cell viability ([14]; 1000 nM): 93.3% | cell viability ([14]; 10000 nM): 89.6% | cell viability ([15]; 1 nM): 93.8% | cell viability ([15]; 10 nM): 100% | cell viability ([15]; 100 nM): 102% | cell viability ([15]; 1000 nM): 99.2% | cell viability ([15]; 10000 nM): 99.7%

CC1C=CC=CCCC=CC=CC=CC=CC(OC2OC(C)C(O)C(N)C2O)CC2OC(O)(CC(O)C(O)CCC(O)CC(O)CC(O)CC(=O)OC(C)C(C)C1O)CC(O)C2C(=O)O (stereo not given) [nystatin]
drug sensitivity score [1]: 0 | drug sensitivity score [2]: 0 | drug sensitivity score [3]: 0 | drug sensitivity score [4]: 0 | drug sensitivity score [5]: 0 | relative viability EC50 [6]: > 10 µM | relative viability EC50 [7]: > 10 µM | relative viability EC50 [8]: > 10 µM | relative viability EC50 [9]: > 10 µM | relative viability EC50 [10]: > 10 µM | cell viability ([11]; 1 nM): 98.4% | cell viability ([11]; 10 nM): 98.5% | cell viability ([11]; 100 nM): 97.4% | cell viability ([11]; 1000 nM): 97.4% | cell viability ([11]; 10000 nM): 103% | cell viability ([12]; 1 nM): 96.7% | cell viability ([12]; 10 nM): 101% | cell viability ([12]; 100 nM): 98.7% | cell viability ([12]; 1000 nM): 96.8% | cell viability ([12]; 10000 nM): 110% | cell viability ([13]; 1 nM): 106% | cell viability ([13]; 10 nM): 84.5% | cell viability ([13]; 100 nM): 94.6% | cell viability ([13]; 1000 nM): 104% | cell viability ([13]; 10000 nM): 109% | cell viability ([14]; 1 nM): 92.9% | cell viability ([14]; 10 nM): 93.6% | cell viability ([14]; 100 nM): 94.7% | cell viability ([14]; 1000 nM): 96.1% | cell viability ([14]; 10000 nM): 107% | cell viability ([15]; 1 nM): 102% | cell viability ([15]; 10 nM): 99.3% | cell viability ([15]; 100 nM): 99% | cell viability ([15]; 1000 nM): 102% | cell viability ([15]; 10000 nM): 104%

C[C@@H](O)[C@@H]1NC(=O)[C@H](CCCCN)NC(=O)[C@@H](Cc2c[nH]c3ccccc23)NC(=O)[C@H](Cc2ccccc2)NC(=O)[C@@H](NC(=O)[C@H](N)Cc2ccccc2)CSSC[C@@H](C(=O)N[C@H](CO)[C@@H](C)O)NC1=O [octreotide]
drug sensitivity score [1]: 0 | drug sensitivity score [2]: 0 | drug sensitivity score [3]: 0 | drug sensitivity score [4]: 0 | drug sensitivity score [5]: 0 | relative viability EC50 [6]: > 10 µM | relative viability EC50 [7]: > 10 µM | relative viability EC50 [8]: > 10 µM | relative viability EC50 [9]: > 10 µM | relative viability EC50 [10]: > 10 µM | cell viability ([11]; 1 nM): 103% | cell viability ([11]; 10 nM): 115% | cell viability ([11]; 100 nM): 95.6% | cell viability ([11]; 1000 nM): 119% | cell viability ([11]; 10000 nM): 104% | cell viability ([12]; 1 nM): 98.1% | cell viability ([12]; 10 nM): 98.9% | cell viability ([12]; 100 nM): 98.8% | cell viability ([12]; 1000 nM): 115% | cell viability ([12]; 10000 nM): 92.7% | cell viability ([13]; 1 nM): 94.3% | cell viability ([13]; 10 nM): 91.9% | cell viability ([13]; 100 nM): 120% | cell viability ([13]; 1000 nM): 101% | cell viability ([13]; 10000 nM): 109% | cell viability ([14]; 1 nM): 110% | cell viability ([14]; 10 nM): 103% | cell viability ([14]; 100 nM): 110% | cell viability ([14]; 1000 nM): 107% | cell viability ([14]; 10000 nM): 93% | cell viability ([15]; 1 nM): 97.5% | cell viability ([15]; 10 nM): 101% | cell viability ([15]; 100 nM): 96% | cell viability ([15]; 1000 nM): 102% | cell viability ([15]; 10000 nM): 101%

CS(=O)(=O)Nc1ccc2oc3c(OC(F)F)ccc(C(=O)Nc4c(Cl)cncc4Cl)c3c2c1 [oglemilast]
drug sensitivity score [1]: 0 | drug sensitivity score [2]: 0.6 | drug sensitivity score [3]: 1.3 | drug sensitivity score [4]: 0 | drug sensitivity score [5]: 0 | relative viability EC50 [6]: > 10 µM | relative viability EC50 [7]: > 10 µM | relative viability EC50 [8]: > 10 µM | relative viability EC50 [9]: > 10 µM | relative viability EC50 [10]: > 10 µM | cell viability ([11]; 1 nM): 108% | cell viability ([11]; 10 nM): 101% | cell viability ([11]; 100 nM): 92.2% | cell viability ([11]; 1000 nM): 103% | cell viability ([11]; 10000 nM): 90.1% | cell viability ([12]; 1 nM): 96.1% | cell viability ([12]; 10 nM): 87.9% | cell viability ([12]; 100 nM): 93.3% | cell viability ([12]; 1000 nM): 86% | cell viability ([12]; 10000 nM): 89.8% | cell viability ([13]; 1 nM): 91% | cell viability ([13]; 10 nM): 88.4% | cell viability ([13]; 100 nM): 100% | cell viability ([13]; 1000 nM): 92.7% | cell viability ([13]; 10000 nM): 81.1% | cell viability ([14]; 1 nM): 102% | cell viability ([14]; 10 nM): 95.9% | cell viability ([14]; 100 nM): 96.2% | cell viability ([14]; 1000 nM): 90.5% | cell viability ([14]; 10000 nM): 99.8% | cell viability ([15]; 1 nM): 97.6% | cell viability ([15]; 10 nM): 104% | cell viability ([15]; 100 nM): 97% | cell viability ([15]; 1000 nM): 101% | cell viability ([15]; 10000 nM): 94.2%
